Values quoted from earlier work in patent publication US20050261210A1, “Nonsense suppressor agents in treatment of cutaneous and gastrointestinal disorders” (priority 2004, published 2005).
Entries after “also recorded” stand apart in the source; their conditions may differ. Read-outs that look alike come from different tables or passages of the source.

Assays:
[1] = system: termination suppression (readthrough); settings: for levels of termination suppression: in vitro assay, compared with tobramycin
dystrophin [2] = settings: Duchenne muscular dystrophy patients with nonsense mutations
CFTR [3] = settings: transgenic mouse model of nonsense-mutated CFTR
CFTR [4] = settings: cystic fibrosis patients with CFTR nonsense mutation, application to nasal mucosa
dystrophin [5] = settings: mdx mice, systemic treatment
CFTR [6] = settings: cultured respiratory epithelial cells with CFTR nonsense mutations
dystrophin [7] = settings: cultured muscle cells from mdx mice

Row | Compound | level of read-through ([1]; compared with gentamicin) | levels of termination suppression [1] | dystrophin expression (dystrophin [2]) | expression of functional CFTR protein (CFTR [3]) | functional CFTR protein (CFTR [4]) | dystrophin expression (dystrophin [5]) | muscle injury (dystrophin [5]; versus untreated mdx mice) | expression of functional CFTR protein (CFTR [6]) | dystrophin level (dystrophin [7])
1 | NCC[C@H](O)C(=O)N[C@@H]1C[C@H](N)[C@@H](O[C@H]2O[C@H](CN)[C@@H](O)[C@H](O)[C@H]2O)[C@H](O)[C@H]1O[C@H]1O[C@H](CO)[C@@H](O)[C@H](N)[C@H]1O [amikacin] | higher level of read-through than gentamicin in some contexts | higher than those provided by tobramycin | – | – | – | – | – | – | –
2 | gentamicin | – | higher than those provided by tobramycin | treatment-dependent expression of dystrophin in some patients; also recorded: lack of response in others | restore expression of functional CFTR protein | restoration of functional CFTR protein | expression of the protein throughout the animal | protection against the muscle injury | restore expression of functional CFTR protein | detectable levels of dystrophin
